Assay results taken from US11179437B2, “COP9 signalosome (CSN) complex modulators and uses thereof” (Yeda Research and Development Co. Ltd., priority 2017, dated 2021).

Tests used:
[1] = tested on: HAP1 cells; test: Cell cycle analysis by flow cytometry (double thymidine block or asynchronous BrdU/propidium iodide); type: cell-based, human; settings: WT cells expressing or exposed to the C-terminal CSNAP segment; release from double thymidine block (FIG. 9)
Experimental: UV treated cells were exposed to 5 J/m^2 dose at release, and fixed with ethanol at different time points. Cell cycle phases were assessed by flow cytometry (LSRII, BD Biosciences) following propidium iodide staining. Asynchronous cells were analyzed using propidium iodide and BrdU double staining. 10^5 cells were denatured after fixation using 2N HCl, 0.5% Triton X-100 in PBS for 30 minutes, neutralized in 0.1M Na2B4O7 pH8.5 and incubated with 5 μl of anti-BrdU-FITC (eBioscience 11-5071-41) 1% BSA, 0.5% Triton X-100 in PBS for 1 hour. Cells were washed in 1% BSA in PBS and resuspended in PBS containing 50 μg/ml propidium iodide and 50 μg/ml RNAse A, and analyzed in FACSAria Fusion flow cytometer (BD Biosciences).

[2] = tested on: cells; test: Cell death in cells exposed to the C-terminal peptide; type: cell-based

With “DFFNDFEDLFDDDDIQ [C-terminal peptide, peptide comprising the C-terminal region of CSNAP, responsible for assembly into the CSN complex]” the cell cycle progression [1] was “capable of preventing cell cycle progression” and the “induction of cell death” value [2] was “induce cell death”.
